Data from PubChem BioAssay AID1918945 (Molecular Pharmacology Branch, DTP, NCI, 2023).

Tested on: 883617-216-R-J1-PDC complex spheroid viability
Assay: Anticancer human tumor 883617-216-R-J1-PDC patient-derived bladder carcinoma cell line growth inhibition
Conditions: for IC50: curve of first compound; for viability, T/C: stronger effect = lower value
From the text: Multicellular complex tumor spheroid response to LSD1 Inhibitor Iadademstat in combination with a variety of drugs and investigational agents in selected tumor cell lines
The current study was undertaken to assess response to LSD1 inhibitors in combination with standard-of-care drugs and investigational agents in solid tumor complex spheroid models as well as in the K-562 leukemia. Complex spheroids include a stromal component modeled by human endothelial cells (HUVEC) and fibroblasts modeled by human mesenchymal stem cells (MSCs). The concentration ranges selected for each drug and investigational agent were based upon clinically achievable concentrations if the clinical Cmax of the agent was known.
Compounds. The drugs and investigational agents used in this study are listed on Table 1. All of the agents used, including staurosporine (NSC755774) and gemcitabine (NSC613327), were obtained from the Developmental Therapeutics Program, NCI. FDA-approved anticancer drugs are available from the NCI at http://dtp.nci.nih.gov/branches/dscb/oncology_drugset_explanation.html. Drugs and investigational agents were >95% pure by proton nuclear magnetic resonance (NMR) and liquid chromatography/mass spectrometry (LC/MS). Stock solutions were prepared at 400x in DMSO, stored at -70 degrees C, and diluted in fresh medium prior to their use. The final concentration of DMSO in cell culture wells never exceeded 0.25% (v/v). The FDA-approved anticancer drug set is available from the Developmental Therapeutics Program at https://dtp.cancer.gov/organization/dscb/obtaining/available_plates.htm. All drugs and investigational agents were tested over a range starting from a high concentration at or near the clinical Cmax and decreasing in half-log increments. If the clinical Cmax for an agent had not been determined, the highest concentration tested was 10 microM.
Cell Lines. The patient-derived cancer cell (PDC) lines: 292921-168-R-J2-PDC, K24384-001-R-PDC, and 521955-158-R2-J5-PDC pancreatic carcinomas, 556581-035-R-J1 ovarian carcinoma, 324938-238-R-J1-PDC, 855422-203-R-J1-PDC and 883617-216-R-J1-PDC urothelial bladder carcinomas, 743489-274-T-PDC renal cell carcinoma, 138582-R-J1 Merkel cell tumor, K60290-347-R-J1 and K57222-313-R-J1-PDC glioblastomas, 653999-131-R-J2-PDC, LG0703-F948-PDC, and 349418-098-R-PDC non-small cell lung carcinomas, 885512-296-R-J2-PDC, 171881-019-R-J1-PDC breast carcinomas and 186277-243-T-J2-PDC and 233499-124-R-J2-PDC colon carcinomas were obtained from the NCI Patient-Derived Models Repository (PDMR, https://pdmr.cancer.gov). The established cell lines NCI/ADR-RES (RRID:CVCL_14520 and OVCAR-5 (RRID:CVCL_1628) ovarian carcinomas, 786-O (RRID:CVCL_1051) and A498 (RRID:CVCL_A498) renal cell carcinoma, NCI-H211 (ATCC, cat. CRL-5824; RRID:CVCL_1529), NCI-H196 (ATCC, cat. CRL-5823, RRID:CVCL_1509), SW 1271 (ATCC, cat. CRL-2177, RRID:CVCL_1716) and NCI-H1876 (ATCC, cat. CRL-5902, RRID:CVCL_1503) small cell lung carcinomas, MDA-MB-231 (RRID:CVCL_0062) and MDA-MB-468 (RRID:CVCL_0419)breast carcinomas (10-12). Pooled donor human umbilical vein endothelial cells (HUVEC, Lonza, cat. CC-2519) and human mesenchymal stem cells (hMSC, Lonza, cat. PT-2501) were purchased from Lonza (Walkersville, MD).
Cell Culture. All cells were maintained in an incubator at 37 degrees C and 5% CO2 with 95% humidity. The PDC lines were cultured according to standard operating procedures established by the NCI PDMR (https://pdmr.cancer.gov). Briefly all PDCs were thawed and cultured in Matrigel-coated flasks prepared with a working solution of 1X Ham's F-12 nutrient mix, without supplementation (Invitrogen, Waltham, MA, cat. 11765054), 100 U/mL penicillin-streptomycin (Invitrogen, cat. 15140122), and 2.5% Matrigel (Corning Inc., Corning, NY, cat. 354248) for the first three passages. […]

[1] = second compound 0.1 µM, first compound 0.00949 µM
[2] = second compound 0.1 µM, first compound 0.03 µM
[3] = second compound 0.1 µM, first compound 0.0949 µM
[4] = second compound 0.1 µM, first compound 0.3 µM
[5] = second compound 0.316 µM, first compound 0.00949 µM
[6] = second compound 0.316 µM, first compound 0.03 µM
[7] = second compound 0.316 µM, first compound 0.0949 µM
[8] = second compound 0.316 µM, first compound 0.3 µM
[9] = second compound 1 µM, first compound 0.00949 µM
[10] = second compound 1 µM, first compound 0.03 µM
[11] = second compound 1 µM, first compound 0.0949 µM
[12] = second compound 1 µM, first compound 0.3 µM
[13] = second compound 3.16 µM, first compound 0.00949 µM
[14] = second compound 3.16 µM, first compound 0.03 µM
[15] = second compound 3.16 µM, first compound 0.0949 µM
[16] = second compound 3.16 µM, first compound 0.3 µM
[17] = second compound 10 µM, first compound 0.00949 µM
[18] = second compound 10 µM, first compound 0.03 µM
[19] = second compound 10 µM, first compound 0.0949 µM
[20] = second compound 10 µM, first compound 0.3 µM
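Note: exposure lasted seven days after three days of spheroid growth.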
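Throughout, for viability, T/C: 100% = DMSO vehicle control luminescence.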

SMILES: CCc1c2c(nc3ccc(O)cc13)-c1cc3c(c(=O)n1C2)COC(=O)[C@]3(O)CC + NC1CC1c1ccc(-c2cccc(O)c2)cc1
- IC50 (second compound 0.1 µM): < 0.000949 µM
- IC50 (second compound 0.316 µM): < 0.000949 µM
- IC50 (second compound 1 µM): < 0.000949 µM
- IC50 (second compound 3.16 µM): < 0.000949 µM
- IC50 (second compound 10 µM): < 0.000949 µM
- viability, T/C (second compound 0.1 µM, first compound 0.000949 µM): 25.1%
- viability, T/C (second compound 0.1 µM, first compound 0.003 µM): 20.4%
- viability, T/C [1]: 17.5%
- viability, T/C [2]: 14%
- viability, T/C [3]: 0.36%
- viability, T/C [4]: 0.15%
- viability, T/C (second compound 0.316 µM, first compound 0.000949 µM): 25.6%
- viability, T/C (second compound 0.316 µM, first compound 0.003 µM): 21.7%
- viability, T/C [5]: 19.9%
- viability, T/C [6]: 13%
- viability, T/C [7]: 0.27%
- viability, T/C [8]: 0.12%
- viability, T/C (second compound 1 µM, first compound 0.000949 µM): 25.8%
- viability, T/C (second compound 1 µM, first compound 0.003 µM): 21.6%
- viability, T/C [9]: 24.4%
- viability, T/C [10]: 14.2%
- viability, T/C [11]: 0.38%
- viability, T/C [12]: 0.88%
- viability, T/C (second compound 3.16 µM, first compound 0.000949 µM): 21.6%
- viability, T/C (second compound 3.16 µM, first compound 0.003 µM): 18.4%
- viability, T/C [13]: 19.6%
- viability, T/C [14]: 14.4%
- viability, T/C [15]: 0.18%
- viability, T/C [16]: 0.15%
- viability, T/C (second compound 10 µM, first compound 0.000949 µM): 22.1%
- viability, T/C (second compound 10 µM, first compound 0.003 µM): 19.7%
- viability, T/C [17]: 17.4%
- viability, T/C [18]: 13.8%
- viability, T/C [19]: 0.25%
- viability, T/C [20]: 0.21%

SMILES: Nc1ccccc1NC(=O)c1ccc(CNC(=O)OCc2cccnc2)cc1 + NC1CC1c1ccc(-c2cccc(O)c2)cc1
- IC50 (second compound 0.1 µM): 0.19 µM
- IC50 (second compound 0.316 µM): 0.181 µM
- IC50 (second compound 1 µM): 0.176 µM
- IC50 (second compound 3.16 µM): 0.146 µM
- IC50 (second compound 10 µM): 0.103 µM
- viability, T/C [1]: 103%
- viability, T/C [2]: 106%
- viability, T/C [3]: 64.8%
- viability, T/C [4]: 36.2%
- viability, T/C (second compound 0.1 µM, first compound 0.949 µM): 19.2%
- viability, T/C (second compound 0.1 µM, first compound 3 µM): 0.5%
- viability, T/C [5]: 110%
- viability, T/C [6]: 96%
- viability, T/C [7]: 64.8%
- viability, T/C [8]: 36.9%
- viability, T/C (second compound 0.316 µM, first compound 0.949 µM): 15.8%
- viability, T/C (second compound 0.316 µM, first compound 3 µM): 0.25%
- viability, T/C [9]: 116%
- viability, T/C [10]: 96.6%
- viability, T/C [11]: 62.7%
- viability, T/C [12]: 39.1%
- viability, T/C (second compound 1 µM, first compound 0.949 µM): 12.6%
- viability, T/C (second compound 1 µM, first compound 3 µM): 0.26%
- viability, T/C [13]: 115%
- viability, T/C [14]: 91.2%
- viability, T/C [15]: 57.3%
- viability, T/C [16]: 35.6%
- viability, T/C (second compound 3.16 µM, first compound 0.949 µM): 11.9%
- viability, T/C (second compound 3.16 µM, first compound 3 µM): 0.25%
- viability, T/C [17]: 91.5%
- viability, T/C [18]: 80.7%
- viability, T/C [19]: 43.5%
- viability, T/C [20]: 33.9%
- viability, T/C (second compound 10 µM, first compound 0.949 µM): 13.6%
- viability, T/C (second compound 10 µM, first compound 3 µM): 0.23%

SMILES: O=C(c1cc(Cc2n[nH]c(=O)c3ccccc23)ccc1F)N1CCN(C(=O)C2CC2)CC1 + NC1CC1c1ccc(-c2cccc(O)c2)cc1
- IC50 (second compound 0.1 µM): 0.855 µM
- IC50 (second compound 0.316 µM): 0.784 µM
- IC50 (second compound 1 µM): 1.07 µM
- IC50 (second compound 3.16 µM): 0.526 µM
- IC50 (second compound 10 µM): 0.16 µM
- viability, T/C (second compound 0.1 µM, first compound 0.0316 µM): 94.1%
- viability, T/C (second compound 0.1 µM, first compound 0.1 µM): 86.6%
- viability, T/C (second compound 0.1 µM, first compound 0.316 µM): 72.5%
- viability, T/C (second compound 0.1 µM, first compound 1 µM): 45.8%
- viability, T/C (second compound 0.1 µM, first compound 3.16 µM): 37.5%
- viability, T/C (second compound 0.1 µM, first compound 10 µM): 36.4%
- viability, T/C (second compound 0.316 µM, first compound 0.0316 µM): 96%
- viability, T/C (second compound 0.316 µM, first compound 0.1 µM): 87.7%
- viability, T/C (second compound 0.316 µM, first compound 0.316 µM): 65.5%
- viability, T/C (second compound 0.316 µM, first compound 1 µM): 46.5%
- viability, T/C (second compound 0.316 µM, first compound 3.16 µM): 34.9%
- viability, T/C (second compound 0.316 µM, first compound 10 µM): 31.9%
- viability, T/C (second compound 1 µM, first compound 0.0316 µM): 91.3%
- viability, T/C (second compound 1 µM, first compound 0.1 µM): 71.8%
- viability, T/C (second compound 1 µM, first compound 0.316 µM): 60.8%
- viability, T/C (second compound 1 µM, first compound 1 µM): 59.5%
- viability, T/C (second compound 1 µM, first compound 3.16 µM): 33.5%
- viability, T/C (second compound 1 µM, first compound 10 µM): 26.9%
- viability, T/C (second compound 3.16 µM, first compound 0.0316 µM): 93.3%
- viability, T/C (second compound 3.16 µM, first compound 0.1 µM): 84.1%
- viability, T/C (second compound 3.16 µM, first compound 0.316 µM): 53.7%
- viability, T/C (second compound 3.16 µM, first compound 1 µM): 42.1%
- viability, T/C (second compound 3.16 µM, first compound 3.16 µM): 35.9%
- viability, T/C (second compound 3.16 µM, first compound 10 µM): 25.5%
- viability, T/C (second compound 10 µM, first compound 0.0316 µM): 58%
- viability, T/C (second compound 10 µM, first compound 0.1 µM): 53.4%
- viability, T/C (second compound 10 µM, first compound 0.316 µM): 47.1%
- viability, T/C (second compound 10 µM, first compound 1 µM): 38%
- viability, T/C (second compound 10 µM, first compound 3.16 µM): 31.1%
- viability, T/C (second compound 10 µM, first compound 10 µM): 26.5%
